Where two headings read alike, the source gives them in different places.
Experiments:
Type in all cases: in vivo
Puccinia triticina = test: Wheat brown rust (PUCCRT) disease control on wheat seedlings; details: for pest or weed control at 121.5 g/ha: Low volume application; for pest or weed control at 100 ppm: High volume application
Method: Technical grades of materials were dissolved in acetone, which were then mixed with nine volumes of water containing 110 ppm Triton X-100. The fungicide solutions were applied onto wheat seedlings using an automated booth sprayer to run-off. All sprayed plants were allowed to air dry prior to further handling. All fungicides were evaluated using the aforementioned method for their activity vs. all target diseases, unless stated otherwise. Wheat leaf blotch and brown rust activity were also evaluated using track spray applications, in which case the fungicides were formulated as EC formulations, containing 0.1% Trycol 5941 in the spray solutions. Example B: Evaluation of Fungicidal Activity: Wheat Brown Rust (Puccinia triticina; Synonym: Puccinia recondita f. sp. tritici; Bayer Code PUCCRT) Wheat plants (variety Yuma) were grown from seed in a greenhouse in 50% mineral soil/50% soil-less Metro mix until the first leaf was fully emerged, with 7-10 seedlings per pot. These plants were inoculated with an aqueous spore suspension of Puccinia triticina either prior to or after fungicide treatments. After inoculation the plants were kept in a dark dew room at 22° C. with 100% relative humidity overnight to permit spores to germinate and infect the leaf. The plants were then transferred to a greenhouse set at 24° C. for disease to develop. Fungicide formulation, application and disease assessment followed the procedures as described in the Example A.

Zymoseptoria tritici = test: Leaf blotch of wheat (SEPTTR) disease control on wheat seedlings; details: for pest or weed control at 121.5 g/ha: Low volume application; for pest or weed control at 100 ppm: High volume application
Method: Example A: Evaluation of Fungicidal Activity: Leaf Blotch of Wheat (Zymoseptoria tritici; Bayer Code […]) Technical grades of materials were dissolved in acetone, which were then mixed with nine volumes of water containing 110 ppm Triton X-100. The fungicide solutions were applied onto wheat seedlings using an automated booth sprayer to run-off. All sprayed plants were allowed to air dry prior to further handling. All fungicides were evaluated using the aforementioned method for their activity vs. all target diseases, unless stated otherwise. Wheat leaf blotch and brown rust activity were also evaluated using track spray applications, in which case the fungicides were formulated as EC formulations, containing 0.1% Trycol 5941 in the spray solutions. Wheat plants (variety Yuma) were grown from seed in a greenhouse in 50% mineral soil/50% soil-less Metro mix until the first leaf was fully emerged, with 7-10 seedlings per pot. These plants were inoculated with an aqueous spore suspension of Zymoseptoria tritici either prior to or after fungicide treatments. After inoculation the plants were kept in 100% relative humidity (one day in a dark dew chamber followed by two to three days in a lighted dew chamber at 20° C.) to permit spores to germinate and infect the leaf. The plants were then transferred to a greenhouse set at 20° C. for disease to develop. When disease symptoms were fully expressed on the 1st leaves of untreated plants, infection levels were assessed on a scale of 0 to 100 percent disease severity. Percent disease control was calculated using the ratio of disease severity on treated plants relative to untreated plants.

Phakopsora pachyrhizi = test: Asian soybean rust (PHAKPA) disease control on soybean seedlings; details: High volume application at 25 ppm; for pest or weed control at 25 ppm: Phakopsora pachyrhizi
Method: Example C: Evaluation of Fungicidal Activity: Asian Soybean Rust (Phakopsora pachyrhizi; Bayer Code […]) Technical grades of materials were dissolved in acetone, which were then mixed with nine volumes of water containing 0.011% Tween 20. The fungicide solutions were applied onto soybean seedlings using an automated booth sprayer to run-off. All sprayed plants were allowed to air dry prior to further handling. Soybean plants (variety Williams 82) were grown in soil-less Metro mix, with one plant per pot. Two week old seedlings were used for testing. Plants were inoculated either 3 days prior to or 1 day after fungicide treatments. Plants were incubated for 24 h in a dark dew room at 22° C. and 100% relative humidity then transferred to a growth room at 23° C. for disease to develop. Disease severity was assessed on the sprayed leaves.

[1] = 24 h, 1 Day Protectant, read-out: PUCCRT disease control rating, 1DP
[2] = 72 h, 3 Day Curative, read-out: PUCCRT disease control rating, 3DC
[3] = 24 h, 1 Day Protectant, read-out: SEPTTR disease control rating, 1DP
[4] = 72 h, 3 Day Curative, read-out: SEPTTR disease control rating, 3DC
[5] = 24 h, 1 day protectant, read-out: PHAKPA 1DP (1 Day Protectant) disease control
[6] = 72 h, 3 day curative, read-out: PHAKPA 3DC (3 Day Curative) disease control

| Structure (SMILES) | pest or weed control at 121.5 g/ha (Puccinia triticina; [1]) | pest or weed control at 121.5 g/ha (Puccinia triticina; [2]) | pest or weed control at 121.5 g/ha (Zymoseptoria tritici; [3]) | pest or weed control at 121.5 g/ha (Zymoseptoria tritici; [4]) | pest or weed control at 25 ppm (Phakopsora pachyrhizi; [5]) | pest or weed control at 25 ppm (Phakopsora pachyrhizi; [6]) | further results |
| --- | --- | --- | --- | --- | --- | --- | --- |
| COc1ccnc(C(=O)N[C@@H](C)C(=O)O[C@@H](C)[C@@H](C)c2ccc(F)cc2C(F)(F)F)c1OC(C)=O [Example 246] | > 80% | > 80% | > 80% | > 80% | > 80% | > 80% | – |
| COc1ccnc(C(=O)N[C@@H](C)C(=O)OC(C)C(C)c2c(C)cc(F)cc2C)c1OC(=O)C(C)C (stereo partly shown) [Example 244] | > 80% | < 80% | > 80% | > 80% | > 80% | > 80% | – |
| COc1ccnc(C(=S)N[C@@H](C)C(=O)O[C@@H](C)[C@@H](C)C2CCCC2)c1OC(C)=O [Example 272] | < 80% | < 80% | < 80% | < 80% | > 80% | < 80% | – |
| COc1cc(F)ccc1[C@@H](C)[C@@H](C)OC(=O)[C@H](C)n1c(=O)oc2c(OC)ccnc2c1=O [Example 262] | < 0% | < 0% | < 80% | < 80% | < 80% | < 80% | – |
| COc1ccnc(C(=O)N[C@@H](C)C(=O)O[C@@H](C)[C@@H](C)c2ccc(C)s2)c1OC(C)=O [Example 259] | < 80% | < 0% | < 80% | < 0% | < 80% | < 80% | pest or weed control at 100 ppm (Puccinia triticina; [1]): > 80%; pest or weed control at 100 ppm (Puccinia triticina; [2]): > 80%; pest or weed control at 100 ppm (Zymoseptoria tritici; [3]): < 80%; pest or weed control at 100 ppm (Zymoseptoria tritici; [4]): < 0% |
| COc1ccnc(C(=O)N[C@@H](C)C(=O)O[C@H](C)[C@H](C)c2ccccc2C(F)(F)F)c1OC(C)=O [Example 250] | < 0% | < 80% | < 80% | < 80% | < 80% | < 80% | – |
| COc1ccnc(C(=O)N[C@@H](C)C(=O)O[C@H](C)[C@H](C)c2c(C)cc(F)cc2C)c1OC(C)=O [Example 254] | > 80% | > 80% | > 80% | > 80% | > 80% | > 80% | – |
| COc1ccnc(C(=O)N[C@@H](C)C(=O)O[C@H](C)[C@H](C)c2ccc(C)cc2C)c1OC(C)=O [Example 178] | < 80% | < 80% | < 80% | < 80% | > 80% | < 80% | – |
| COc1ccnc(C(=O)N[C@@H](C)C(=O)O[C@@H](C)[C@@H](C)c2c(C)cc(F)cc2C)c1OC(=O)C(C)C [Example 238] | > 80% | < 80% | > 80% | > 80% | > 80% | > 80% | – |
| COc1ccnc(C(=O)NCC(=O)O[C@@H](C)[C@@H](C)c2ccc(F)cc2C)c1OC(=O)C(C)C [Example 196] | – | – | – | – | – | – | PHAKPA 1DP (1 Day Protectant) disease control (Phakopsora pachyrhizi; 1 day protectant): A (>80); PHAKPA 3DC (3 Day Curative) disease control (Phakopsora pachyrhizi; 3 day curative): B (≤80) |
| COc1ccnc(C(=O)N[C@@H](C)C(=O)O[C@@H](C)[C@@H](C)c2ccccc2C)c1OC(=O)c1ccccc1 [Example 282] | – | – | – | – | > 80% | > 80% | – |
| COc1ccc([C@@H](C)[C@@H](C)OC(=O)[C@@H](NC(=O)c2nccc(OC)c2OC(C)=O)C(C)C)c(C)c1 [Example 193] | – | – | – | – | < 80% | < 0% | – |
| COc1ccc([C@H](C)[C@H](C)OC(=O)[C@H](C)NC(=O)c2nccc(OC)c2OC(=O)C(C)C)c(C)c1 [Example 230] | – | – | – | – | – | – | PHAKPA 1DP (1 Day Protectant) disease control (Phakopsora pachyrhizi; 1 day protectant): D (≤0); PHAKPA 3DC (3 Day Curative) disease control (Phakopsora pachyrhizi; 3 day curative): D (≤0) |
| COc1ccnc(C(=O)N[C@H](C(=O)O[C@@H](C)[C@@H](C)c2ccc(F)cc2C)C(C)C)c1OC(=O)C(C)C [Example 207] | – | – | – | – | – | – | PHAKPA 1DP (1 Day Protectant) disease control (Phakopsora pachyrhizi; 1 day protectant): B (≤80); PHAKPA 3DC (3 Day Curative) disease control (Phakopsora pachyrhizi; 3 day curative): D (≤0) |
| COc1ccnc(C(=O)N[C@H](C(=O)O[C@@H](C)[C@@H](C)c2ccc(F)cc2)C(C)C)c1OC(C)=O [Example 187] | – | – | – | – | > 80% | < 0% | – |
| COc1ccnc(C(=O)N[C@H](C(=O)O[C@H](C)[C@H](C)c2ccc(F)cc2)C(C)C)c1OC(=O)C(C)C [Example 216] | – | – | – | – | < 80% | < 0% | – |
| COc1ccnc(C(=O)N[C@H](C(=O)O[C@@H](C)[C@@H](C)c2ccc(F)cc2C)C(C)C)c1OC(=O)C(C)C [Example 206] | – | – | – | – | – | – | PHAKPA 1DP (1 Day Protectant) disease control (Phakopsora pachyrhizi; 1 day protectant): B (≤80); PHAKPA 3DC (3 Day Curative) disease control (Phakopsora pachyrhizi; 3 day curative): D (≤0) |
| COc1ccnc(C(=O)N[C@H](C(=O)O[C@H](C)[C@H](C)c2ccc(F)cc2C)C(C)C)c1OC(=O)C(C)C [Example 214] | – | – | – | – | < 80% | < 80% | – |
| CCCCC(=O)Oc1c(OC)ccnc1C(=O)N[C@@H](C)C(=O)O[C@@H](C)[C@@H](C)c1ccccc1C [Example 280] | – | – | – | – | > 80% | > 80% | – |
| COc1ccnc(C(=O)N[C@@H](C)C(=O)O[C@@H](C)[C@@H](C)c2ccccc2C)c1OC(=O)C1CC1 [Example 281] | – | – | – | – | > 80% | > 80% | – |
| COc1ccnc(C(=O)N[C@H](C(=O)O[C@H](C)[C@@H](C)c2ccccc2C)C(C)C)c1OC(=O)C(C)C [Example 215] | – | – | – | – | < 80% | < 80% | – |
| COc1ccnc(C(=O)N[C@H](C(=O)O[C@H](C)[C@@H](C)c2ccc(F)cc2C)C(C)C)c1OC(C)=O [Example 190] | – | – | – | – | < 0% | < 0% | – |
| COc1ccnc(C(=O)N[C@H](C(=O)O[C@@H](C)[C@H](C)c2ccccc2C)C(C)C)c1OC(C)=O [Example 186] | – | – | – | – | < 80% | < 80% | – |
| COc1ccnc(C(=O)N[C@@H](C)C(=O)O[C@@H](C)[C@@H](C)c2ccc(F)cc2)c1OC(=O)C(C)C [Example 229] | – | – | – | – | – | – | PHAKPA 1DP (1 Day Protectant) disease control (Phakopsora pachyrhizi; 1 day protectant): D (≤0); PHAKPA 3DC (3 Day Curative) disease control (Phakopsora pachyrhizi; 3 day curative): D (≤0) |
| COc1ccnc(C(=O)N[C@H](C)C(=O)O[C@H](C)[C@H](C)c2ccc(F)cc2C)c1OC(=O)C(C)C [Example 219] | – | – | – | – | < 0% | < 0% | – |
| COc1ccc([C@@H](C)[C@@H](C)OC(=O)[C@H](C)NC(=O)c2nccc(OC)c2OC(C)=O)c(C)c1 [Example 220] | – | – | – | – | – | – | PHAKPA 1DP (1 Day Protectant) disease control (Phakopsora pachyrhizi; 1 day protectant): B (≤80); PHAKPA 3DC (3 Day Curative) disease control (Phakopsora pachyrhizi; 3 day curative): B (≤80) |
| COc1ccnc(C(=O)NCC(=O)O[C@@H](C)[C@H](C)c2ccccc2C)c1OC(=O)C(C)C [Example 198] | – | – | – | – | < 0% | < 0% | – |
